# Test results published in US7629318B2, “Immunosuppressant compounds, methods and uses related thereto” (priority 2002, dated 2009).
# Values joined by “and” are separate entries in the source; they are usually repeats but may differ in a detail not shown here. Equal values may be shown once. Numbered stars: 1 amine (or outer) side, 2 acyl side, 3 side chain; on linkers, the order of the positions; unused ones are H or OH. Square brackets hold non-standard residues; d marks the D form. Peptide text beside a SMILES is read from it. ξ: configuration not given here. Gly(1-amidinopiperidin-4-yl) = N=C(N)N1CCC([C@H](N)C(=O)O)CC1; X1 = CC(C)c1oc([C@H](CO)N[*:1])nc1C(=O)[*:2]; Pro(3R-Ph) = O=C(O)[C@H]1NCC[C@@H]1c1ccccc1; Met(O) = CS(=O)CC[C@H](N)C(=O)O; Tic = O=C(O)[C@@H]1Cc2ccccc2CN1; Cha = N[C@@H](CC1CCCCC1)C(=O)O; ξDisc = O=C(O)C1NCc2ccccc21
# Key:
# [1] = molecular target: DR4Dw4 (DRA1*0101 DRB1*0401) (Homo sapiens, UniProt P01903+P01911, A100K/A169T/F76Y/I96L/K127E/L162R/M171V/N62H/P40V/Q125Y/R42H/S133A/S149N/S66Y/V115G/V209L/W38E); assay: Competitive binding to MHC-II protein DR4Dw4
# Method in brief: (§1)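 Each MHC-II allele incubated with compound 16 hours at room temperature in duplicate; controls lacked compound, or both compound and MHC-II. Complexes captured 2 h at 4 °C, bound biotinylated peptide detected via europium-streptavidin and DELFIA enhancement, time-resolved fluorescence read at ex 340/em 613 (615) nm.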
# [2] = molecular target: T1, LG2 (DR1: DRA1*0101 DRB1*0101) cells (Homo sapiens, UniProt P01903+P01911, A100R/D57E/F55L/F60I/F76Y/I96L/L162R/M171V/P40L/Q125E/R42F/V115G/Y59C); assay: Competitive binding to MHC II proteins expressed on LG2 cells; format: cell-based; conditions: Cell binding IC50 (uM) LG2 (0101), LG2 (0101)
# T1 construct: MHC II Proteins Expressed on PRIESS and LG2 Cells; endogenous in cells; host or cells: LG2 cells
# Method: (§2) For use in the binding assay the cells were re-suspended in medium containing 1% FCS at a density of 2.5×10^6 cells/ml.
# (§3) The assay was performed in sterile 96 well polystyrene microtiter plates. A 10 fold dilution series of compounds (16 nM-1615 μM) in 1% FCS was prepared from 5 or 10 mM compound stock solutions in 10% DMSO/water. 50 μl of each compound dilution were added in duplicates to 50 μl of a 16 μM solution of indicator peptide in 1% FCS. Cell binding was initiated by adding 100 μl of 2.5×10^6 cells/ml 1% FCS to each well. Controls were included containing the DMSO concentration present in the solution with the highest compound concentration. The cells were incubated at 37° C., 6% CO2. After 4 hours the cells were washed with 200 μl PBS and lysed in 200 μl lysis buffer (50 mM sodium phosphate, 150 mM sodium chloride, 1% (w/v) NP-40, 25 mM iodoacetamide, 1 mM PMSF, 3.1% protease inhibitor cocktail: 0.32 g/l of Chymostatin, Antipain, Pepstatin A, Soybean trypsin inhibitor and Leupeptin each, pH 7.5) for 10 min.
# (§4) After washing with PBS, 190 μl of cell lysate were transferred to the appropriate wells of the capture plate and incubated for 2 h at 4° C. The wells were washed six times with 200 μl/well cooled (4 to 8° C.) of 1×DELFIA wash (Wallac-ADL-GmbH, Freiburg), incubated with 100 μl of cooled Europium-streptavidin conjugate (Wallac-ADL-GmbH, Freiburg; diluted 1/1000 with DELFIA assay buffer) for 30 minutes at 4° C., again washed six times with cooled 1×DELFIA wash and, finally, incubated with 200 μl cooled DELFIA enhancement solution (Wallac-ADL-GmbH, Freiburg) for one hour at room temperature before reading the time-resolved europium fluorescence at λex Eu^3+: 340 nm and λem Eu^3+: 613 (615) nm (Wallac Victor^2 1420 Multilabel Counter, Wallac-ADL-GmbH, Freiburg).
# [3] = molecular target: Cathepsin D (EC 3.4.23.5 from bovine spleen) (Bos taurus, UniProt P80209)
# Method: The stability of the peptidomimetic compounds towards lysosomal degradation was examined by incubation with Cathepsin B1 (EC 3.4.22.1 from bovine spleen; Sigma-Aldrich, Taufkirchen; dissolved at 10000 U/l in ddH2O) and D (EC 3.4.23.5 from bovine spleen; Sigma-Aldrich, Taufkirchen; dissolved at 10000 U/l in ddH2O) for four hours at 37° C. using a compound concentration of 50 μM and an enzyme/substrate ratio of 0.4 U/μmol. The samples contained 25 ppm 4-isopropyl benzyl alcohol (IPBA; Sigma-Aldrich, Taufkirchen) as internal standard.
# Assay buffer was prepared by adding 35 μl of a 1% IPBA in DMSO solution and 28 μl of a 10000 U/l Cathepsin B1 or Cathepsin D stock solution to 14 ml of 100 mM sodium acetate, 1 mM EDTA, 1 mM DTT, pH 5.00 or 100 mM sodium acetate, pH 4.50, respectively. 8.8 μl of a 5 mM (or 4.4 μl of a 10 mM) compound stock solution (in 10% DMSO/water) were placed into a 1.5 ml Eppendorf tube. The reaction was started by adding 875 μl fully supplemented assay buffer to each tube, whirlmixing and incubation at 37° C. At 0 and 4 hours 400 μl samples were taken and the enzyme was inactivated by addition of 40 μl […] TFA aq. The samples were kept frozen at −20° C. until analysis by RP-HPLC (200 μl injection volume; Nucleosil 100-5 C18, 12.5×4.6 cm; Gradient: 20-50% acetonitrile in 30 min).
# Compounds co-eluting with the internal standard during RP-HPLC analysis were tested without the standard as Example 16.
# [4] = Stability of compounds in rat blood plasma; format: in vitro ADME
# Method in brief: (§5)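 Compounds at 5 μM final in rat, mouse or human plasma, incubated at 37 °C and sampled at 0, 6 and 24 h. Proteins precipitated with acetonitrile and the supernatant dried and reconstituted in 50% acetonitrile/0.1% TFA. PBS controls run for unstable compounds.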
# [5] = Stability of compounds in human blood plasma; format: in vitro ADME
# Method in brief: as §5
# [6] = molecular target: DR4Dw14 (DRA1*0101 DRB1*0404) (Homo sapiens, UniProt P01903+P01911, A100R/A169T/F76Y/I96L/K127E/L162R/M171V/N62H/P40V/Q125Y/R42H/S133A/S149N/S66Y/V209L/W38E); assay: Competitive binding to MHC-II protein DR4Dw14; conditions: 0404; read-out: Protein binding IC50 (nM) 0404
# Method in brief: as §1
# [7] = molecular target: DR1 (DRA1*0101 DRB1*0101) (Homo sapiens, UniProt P01903+P01911, A100R/D57E/F55L/F60I/F76Y/I96L/L162R/M171V/P40L/Q125E/R42F/V115G/Y59C); assay: Competitive binding to MHC-II protein DR1; conditions: Protein binding IC50 (nM) 0101, 0101
# Method in brief: as §1
# [8] = molecular target: Cathepsin B1 (EC 3.4.22.1 from bovine spleen) (Bos taurus, UniProt P07688); conditions: Cathepsin B, 4 h
# [9] = molecular target: T2, Priess (DR4Dw4: DRA1*0101 DRB1*0401) cells (Homo sapiens, UniProt P01903+P01911, A100K/A169T/F76Y/I96L/K127E/L162R/M171V/N62H/P40V/Q125Y/R42H/S133A/S149N/S66Y/V115G/V209L/W38E); assay: Competitive binding to MHC II proteins expressed on Priess cells; format: cell-based
# T2 construct: MHC II Proteins Expressed on PRIESS and LG2 Cells; endogenous in cells; host or cells: Priess cells
# Method: as §2, §3, §4
# [10] = Stability of compounds in mouse blood plasma; format: in vitro ADME
# Method in brief: as §5
# [11] = tested on: T-cell proliferation, DR14-LN
Structure (SMILES),IC50 [1],IC50 [2],Stability (Arbitrary units) Cath D 4 h [3],Stability (Arbitrary units) Rat 6 h [4],Stability (Arbitrary units) Rat 24 h [4],Stability (Arbitrary units) Human 6 h [5],Stability (Arbitrary units) Human 24 h [5],IC50 [6],IC50 [7],Stability (Arbitrary units) Cath B 4 h [8],IC50 [9],Stability (Arbitrary units) Mouse 6 h [10],Stability (Arbitrary units) Mouse 24 h [10],Immunsupressive assays DR14-LN (Max) % Inhibition ([11]; maximal inhibition),IC50 ([11]; read-out: Immunsupressive assays DR14-LN (IC50))
"CC(=O)N[C@@H](CC1CCCCC1)C(=O)N[C@@H](CCCNC(=N)N)C(=O)N1Cc2ccccc2C[C@H]1C(=O)N[C@@H](CC[S+](C)[O-])C(=O)N1CC[C@H](c2ccccc2)[C@H]1C(=O)N[C@@H](CO)c1nc(C(=O)N(C)C)c(C(C)C)o1 (stereo partly drawn) [Compound P43, Ac-Cha-Arg-Tic-Met(O)-βPhPro-[S(oxaz)L]-NMe2] (Ac-[Cha]R[Tic][Met(O)][Pro(3R-Ph)][X1]-NMe2)",0.32 µM,13 µM,101 Arbitrary units,96 Arbitrary units,71 Arbitrary units,134 Arbitrary units,131 Arbitrary units,1700 nM,380 nM,96 Arbitrary units,3.1 µM,96 Arbitrary units,82 Arbitrary units,,
"CSCC[C@H](NC(=O)[C@@H]1Cc2ccccc2CN1C(=O)[C@@H](NC(=O)[C@H](CC1CCCCC1)NC(C)=O)C1CCN(C(=N)N)CC1)C(=O)N1CC[C@H](c2ccccc2)[C@H]1C(N)=O [Compound P80, Ac-Cha-Gpg-Tic-Met-βPhProNH2] (Ac-[Cha][Gly(1-amidinopiperidin-4-yl)][Tic]M[Pro(3R-Ph)]-NH2)",0.67 µM,2.7 µM,84 Arbitrary units,102 Arbitrary units,39 Arbitrary units,139 Arbitrary units,134 Arbitrary units,470 nM,550 nM,90 Arbitrary units,2.7 µM,106 Arbitrary units,123 Arbitrary units,88%,94 µM
"CSCC[C@H](NC(=O)[C@@H]1Cc2ccccc2CN1C(=O)[C@@H](NC(=O)[C@H](CC1CCCCC1)NC(C)=O)C1CCN(C(=N)N)CC1)C(N)=O [Compound P67, Ac-Cha-Gpg-Tic-Met-NH2] (Ac-[Cha][Gly(1-amidinopiperidin-4-yl)][Tic]M-NH2)",0.41 µM,4.5 µM,113 Arbitrary units,10 Arbitrary units,34 Arbitrary units,97 Arbitrary units,100 Arbitrary units,1060 nM and 1080 nM,120 nM,58 Arbitrary units,4.5 µM,71 Arbitrary units,16 Arbitrary units,,
"CSCC[C@H](NC(=O)C1c2ccccc2CN1C(=O)[C@H](CCCNC(=N)N)NC(=O)[C@H](CC1CCCCC1)NC(C)=O)C(=O)N1CC[C@H](c2ccccc2)[C@H]1C(=O)N[C@@H](CO)c1nc(C(=O)N(C)C)c(C(C)C)o1 (stereo partly drawn) [Compound P40-1, Ac-Cha-Arg-Disc-Met-βPhPro-[S(oxaz)L]NMe2] (Ac-[Cha]R[ξDisc]M[Pro(3R-Ph)][X1]-NMe2)",0.27 µM,8 µM,93 Arbitrary units,111 Arbitrary units,71 Arbitrary units,108 Arbitrary units,103 Arbitrary units,98 nM,140 nM,99 Arbitrary units,3 µM,,,,
